According to publication PMC7715017, “Conjugation of Synthetic Polyproline Moietes to Lipid II Binding Fragments of Nisin Yields Active and Stable Antimicrobials” (Frontiers in Microbiology, 2020):
≈ marks a conversion by molar mass, not a printed value. Like-named read-outs stand apart in the source and are kept apart here. Non-standard residues stand in square brackets, D forms with d. Residues, ends and D or L forms follow the SMILES beside them. *: point of attachment. Oic = O=C(O)[C@@H]1C[C@@H]2CCCC[C@@H]2N1; Pent4ynoyl = C#CCCC(=O)*

Columns and labels:
[1] = tested on: L. lactis NZ9000 (pEmpty); conditions: broth microdilution (Wiegand et al. 2008); samples in 0.05% acetic acid; strain with empty plasmid
Description: (§1) All samples were resuspended in 0.05% aqueous acetic acid solution and the peptide amount was quantified by HPLC according to Schmitt et al. ([Schmitt et al., 2019]). The indicator strains MW2-MRSA, Enterococcus faecium, Listeria monocytogenes, and Lactococcus lactis were first streaked on GM17 plate and cultured overnight. The peptide samples were diluted with 0.05% acetic acid to a concentration of 40–320 μM (depending on the estimated activity of the peptide and the strain tested). The MIC value test was performed according to [Wiegand et al. (2008)].
(§2) M. flavus was used as the indicator strain for the agar well diffusion assay, and 0.15 nmol of each sample was added to each well (Figure 3). […] Antimicrobial activity of all compounds was tested by growth inhibition assays against two clinically relevant Gram-positive pathogens, i.e., methicillin resistant S. aureus and vancomycin resistant E. faecium, as well as L. monocytogenes, and L. lactis. […] For this experiment, an activity test was performed against the NSR producing strain L. lactis NZ9000 (pNSR).

[2] = tested on: Listeria monocytogenes LMG 10470
Description: as §1, §2

[3] = tested on: Enterococcus faecium LMG 16003 (vancomycin resistant, VRE)
Description: as §1, §2

[4] = tested on: MW2-MRSA (Staphylococcus aureus MW2, methicillin resistant)
Description: as §1, §2

[5] = MW2- ( MW2, methicillin resistant)
[6] = broth microdilution (Wiegand et al. 2008), samples in 0.05% acetic acid, quantified by HPLC

SMILES | MIC value, L. lactis NZ9000 (pEmpty) [1] [μM] | MIC value, L. monocytogenes ([2]; LMG 10470) [µM] | MIC value, E. faecium ([3]; LMG 16003) [µM] | MIC value, MW2-MRSA [4, 5] [µM] | MIC value, L. monocytogenes [2, 6] [µM] | MIC value, E. faecium [3, 6] [µM] | MIC value, MW2-MRSA [4, 6] [µM]
C=C1NC(=O)[C@H]([C@@H](C)CC)NC(=O)[C@H](NC(=O)/C(=C/C)NC(=O)[C@@H](N)[C@@H](C)CC)CSC[C@@H](C(=O)N[C@H]2C(=O)N3CCC[C@H]3C(=O)NCC(=O)N[C@H](C(=O)N[C@@H](CCCCN)C(=O)NCCCn3cc(CCC(=O)N4[C@H](C(=O)N5[C@H](C(=O)N6[C@H](C(=O)N[C@@H](CCCCN)C(=O)N[C@@H](CCCCN)C(=O)N[C@@H](CCCCN)C(=O)O)C[C@@H]7CCCC[C@@H]76)C[C@@H]6CCCC[C@@H]65)C[C@@H]5CCCC[C@@H]54)nn3)CS[C@H]2C)NC(=O)[C@H](CC(C)C)NC1=O [Nisin AB + O3K3] | >40 |  |  |  |  |  | 
C=C1NC(=O)[C@H]([C@@H](C)CC)NC(=O)[C@H](NC(=O)/C(=C/C)NC(=O)[C@@H](N)[C@@H](C)CC)CSC[C@@H](C(=O)N[C@H]2C(=O)N3CCC[C@H]3C(=O)NCC(=O)N[C@H](C(=O)N[C@@H](CCCCN)C(=O)NCCCn3cc(CCC(=O)N4[C@H](C(=O)N5[C@H](C(=O)N6[C@H](C(=O)O)C[C@@H]7CCCC[C@@H]76)C[C@@H]6CCCC[C@@H]65)C[C@@H]5CCCC[C@@H]54)nn3)CS[C@H]2C)NC(=O)[C@H](CC(C)C)NC1=O [Nisin AB + O3] | >40 |  |  |  |  |  | 
C=C1NC(=O)[C@H]([C@@H](C)CC)NC(=O)[C@H](NC(=O)/C(=C/C)NC(=O)[C@@H](N)[C@@H](C)CC)CSC[C@@H](C(=O)N[C@H]2C(=O)N3CCC[C@H]3C(=O)NCC(=O)N[C@H](C(=O)N[C@@H](CCCCN)C(=O)NCCCn3cc(CCC(=O)N4[C@H](C(=O)N5[C@H](C(=O)N6[C@H](C(=O)N7[C@H](C(=O)N8[C@H](C(=O)N9[C@H](C(=O)O)C[C@@H]%10CCCC[C@@H]%109)C[C@@H]9CCCC[C@@H]98)C[C@@H]8CCCC[C@@H]87)C[C@@H]7CCCC[C@@H]76)C[C@@H]6CCCC[C@@H]65)C[C@@H]5CCCC[C@@H]54)nn3)CS[C@H]2C)NC(=O)[C@H](CC(C)C)NC1=O [Nisin AB + O6] | 20 |  |  |  |  |  | 
C=C1NC(=O)[C@H]([C@@H](C)CC)NC(=O)[C@H](NC(=O)/C(=C/C)NC(=O)[C@@H](N)[C@@H](C)CC)CSC[C@@H](C(=O)N[C@H]2C(=O)N3CCC[C@H]3C(=O)NCC(=O)N[C@H](C(=O)N[C@@H](CCCCN)C(=O)NCCCn3cc(CCC(=O)N4[C@H](C(=O)N5[C@H](C(=O)N6[C@H](C(=O)N7[C@H](C(=O)N8[C@H](C(=O)N9[C@H](C(=O)N%10[C@H](C(=O)N%11[C@H](C(=O)N%12[C@H](C(=O)O)C[C@@H]%13CCCC[C@@H]%13%12)C[C@@H]%12CCCC[C@@H]%12%11)C[C@@H]%11CCCC[C@@H]%11%10)C[C@@H]%10CCCC[C@@H]%109)C[C@@H]9CCCC[C@@H]98)C[C@@H]8CCCC[C@@H]87)C[C@@H]7CCCC[C@@H]76)C[C@@H]6CCCC[C@@H]65)C[C@@H]5CCCC[C@@H]54)nn3)CS[C@H]2C)NC(=O)[C@H](CC(C)C)NC1=O [Nisin AB + O9] | 5.0 |  |  |  |  |  | 
C=C1NC(=O)[C@H]([C@@H](C)CC)NC(=O)[C@H](NC(=O)/C(=C/C)NC(=O)[C@@H](N)[C@@H](C)CC)CSC[C@@H](C(=O)N[C@H]2C(=O)N3CCC[C@H]3C(=O)NCC(=O)N[C@H](C(=O)N[C@@H](CCCCN)C(=O)N[C@H]3C(=O)NCC(=O)N[C@@H](C)C(=O)N[C@@H](CC(C)C)C(=O)N[C@@H](CCSC)C(=O)NCC(=O)N[C@H](C(=O)N[C@@H](CC(N)=O)C(=O)NCCCn4cc(CCC(=O)N5[C@H](C(=O)N6[C@H](C(=O)N7[C@H](C(=O)O)C[C@@H]8CCCC[C@@H]87)C[C@@H]7CCCC[C@@H]76)C[C@@H]6CCCC[C@@H]65)nn4)CS[C@H]3C)CS[C@H]2C)NC(=O)[C@H](CC(C)C)NC1=O [Nisin ABC + O3] | 5.0 | >80 | 20 | >80 |  |  | 
C=C1NC(=O)[C@H]([C@@H](C)CC)NC(=O)[C@H](NC(=O)/C(=C/C)NC(=O)[C@@H](N)[C@@H](C)CC)CSC[C@@H](C(=O)N[C@H]2C(=O)N3CCC[C@H]3C(=O)NCC(=O)N[C@H](C(=O)N[C@@H](CCCCN)C(=O)N[C@H]3C(=O)NCC(=O)N[C@@H](C)C(=O)N[C@@H](CC(C)C)C(=O)N[C@@H](CCSC)C(=O)NCC(=O)N[C@H](C(=O)N[C@@H](CC(N)=O)C(=O)NCCCn4cc(CCC(=O)N5[C@H](C(=O)N6[C@H](C(=O)N7[C@H](C(=O)N8[C@H](C(=O)N9[C@H](C(=O)N%10[C@H](C(=O)N%11[C@H](C(=O)N%12[C@H](C(=O)N%13[C@H](C(=O)O)C[C@@H]%14CCCC[C@@H]%14%13)C[C@@H]%13CCCC[C@@H]%13%12)C[C@@H]%12CCCC[C@@H]%12%11)C[C@@H]%11CCCC[C@@H]%11%10)C[C@@H]%10CCCC[C@@H]%109)C[C@@H]9CCCC[C@@H]98)C[C@@H]8CCCC[C@@H]87)C[C@@H]7CCCC[C@@H]76)C[C@@H]6CCCC[C@@H]65)nn4)CS[C@H]3C)CS[C@H]2C)NC(=O)[C@H](CC(C)C)NC1=O [Nisin ABC + O9] | 5.0 | 40 | 10 | >80 |  |  | 
C=C1NC(=O)[C@H]([C@@H](C)CC)NC(=O)[C@H](NC(=O)/C(=C/C)NC(=O)[C@@H](N)[C@@H](C)CC)CSC[C@@H](C(=O)N[C@H]2C(=O)N3CCC[C@H]3C(=O)NCC(=O)N[C@H](C(=O)N[C@@H](CCCCN)C(=O)N[C@H]3C(=O)NCC(=O)N[C@@H](C)C(=O)N[C@@H](CC(C)C)C(=O)N[C@@H](CCSC)C(=O)NCC(=O)N[C@H](C(=O)N[C@@H](CC(N)=O)C(=O)O)CS[C@H]3C)CS[C@H]2C)NC(=O)[C@H](CC(C)C)NC1=O [Nisin ABC, reference compound] | 5.0 | 40 (≈ 75.2 µg/mL) | 40 (≈ 75.2 µg/mL) | 40 (≈ 75.2 µg/mL) |  |  | 
C#CCCC(=O)N1[C@H](C(=O)N2[C@H](C(=O)N3[C@H](C(=O)N[C@@H](CCCCN)C(=O)N[C@@H](CCCCN)C(=O)N[C@@H](CCCCN)C(=O)O)C[C@@H]4CCCC[C@@H]43)C[C@@H]3CCCC[C@@H]32)C[C@@H]2CCCC[C@@H]21 [O3K3] (Pent4ynoyl-[Oic][Oic][Oic]KKK-OH) | >160 | >160 | >160 | >160 |  |  | 
C#CCCC(=O)N1[C@H](C(=O)N2[C@H](C(=O)N3[C@H](C(=O)O)C[C@@H]4CCCC[C@@H]43)C[C@@H]3CCCC[C@@H]32)C[C@@H]2CCCC[C@@H]21 [O3] |  | >320 | >320 | >320 |  |  | 
C#CCCC(=O)N1[C@H](C(=O)N2[C@H](C(=O)N3[C@H](C(=O)N4[C@H](C(=O)N5[C@H](C(=O)N6[C@H](C(=O)N[C@@H](CCCCN)C(=O)N[C@@H](CCCCN)C(=O)N[C@@H](CCCCN)C(=O)O)C[C@@H]7CCCC[C@@H]76)C[C@@H]6CCCC[C@@H]65)C[C@@H]5CCCC[C@@H]54)C[C@@H]4CCCC[C@@H]43)C[C@@H]3CCCC[C@@H]32)C[C@@H]2CCCC[C@@H]21 [O6K3] (Pent4ynoyl-[Oic][Oic][Oic][Oic][Oic][Oic]KKK-OH) | >80 |  |  |  | >80 | >80 | >80
C#CCCC(=O)N1[C@H](C(=O)N2[C@H](C(=O)N3[C@H](C(=O)N4[C@H](C(=O)N5[C@H](C(=O)N6[C@H](C(=O)O)C[C@@H]7CCCC[C@@H]76)C[C@@H]6CCCC[C@@H]65)C[C@@H]5CCCC[C@@H]54)C[C@@H]4CCCC[C@@H]43)C[C@@H]3CCCC[C@@H]32)C[C@@H]2CCCC[C@@H]21 [O6] (Pent4ynoyl-[Oic][Oic][Oic][Oic][Oic][Oic]-OH) |  | >320 | >320 | >320 |  |  | 
C#CCCC(=O)N1[C@H](C(=O)N2[C@H](C(=O)N3[C@H](C(=O)N4[C@H](C(=O)N5[C@H](C(=O)N6[C@H](C(=O)N7[C@H](C(=O)N8[C@H](C(=O)N9[C@H](C(=O)O)C[C@@H]%10CCCC[C@@H]%109)C[C@@H]9CCCC[C@@H]98)C[C@@H]8CCCC[C@@H]87)C[C@@H]7CCCC[C@@H]76)C[C@@H]6CCCC[C@@H]65)C[C@@H]5CCCC[C@@H]54)C[C@@H]4CCCC[C@@H]43)C[C@@H]3CCCC[C@@H]32)C[C@@H]2CCCC[C@@H]21 [O9, Pentynyl-(Oic)9-OH] (Pent4ynoyl-[Oic][Oic][Oic][Oic][Oic][Oic][Oic][Oic][Oic]-OH) |  | >320 | >320 | >320 |  |  | 
